According to article PMC11229374, “Unlocking the potential of protein-derived peptides to target G-quadruplex DNA: from recognition to anticancer activity” (Nucleic Acids Research, 2024):
“And” between values parts separate entries of the source, which are not always exact repeats. Identical values can stand only once.

How the values were obtained:
[1] = test system: c-KIT2 G4; assay: CD melting, thermal stabilization of c-KIT2 G4; assay type: binding, human; conditions: CD melting at 264 nm, 5 mM KH2PO4/K2HPO4 pH 7.0, 20 mM KCl, average of three
Text: The buffer baseline was subtracted from each spectrum.

[2] = test system: BCL-2 G4; conditions: CD melting at 264 nm, 2 μM DNA, 1 mol equiv peptide, 5 mM KH2PO4/K2HPO4 pH 7.0, 20 mM KCl, 1°C/min; average of three; T1/2 DNA alone 60.7°C
Experimental: (§1) CD experiments were carried out using a Jasco J-815 spectropolarimeter equipped with a PTC-423S/15 Peltier temperature controller. G4-forming and duplex-forming DNA molecules were prepared at a concentration of 2 μM in 5 mM KH2PO4/K2HPO4 buffer (pH 7.0) containing 20 mM KCl or LiCl. CD spectra of DNA/peptide mixtures were obtained by adding 1 mol equiv of peptide (stock solutions of 10 mM in H2O) with respect to the oligonucleotide. CD spectra of DNA molecules in the absence and presence of peptide were recorded at 20 and 100°C in the wavelength range of 220−320 nm and averaged over three scans, utilizing a scan rate of 100 nm/min with a 0.5 s response time and 1 nm bandwidth. The buffer baseline was subtracted from each spectrum. Additionally, CD spectra of Myb1^397–415 in the absence and presence of G4s were recorded at 20°C in the 200−250 nm wavelength range using a scan rate of 20 nm/min, with a 4 s response time and 2 nm bandwidth. The G4 spectra were subtracted from the corresponding G4/peptide mixtures to obtain information on the peptide spectrum in the presence of G4. The percentage of secondary structures adopted by the peptide in the absence and presence of the G4s was estimated using the BeStSel software ([26]). CD melting experiments were performed in the absence and presence of peptides (1 or 2 mol equiv) in the 20−100°C temperature range at 1°C/min heating rate, monitoring changes of the CD signal at wavelengths corresponding to the maximum CD intensity for the G4s (264 nm for c-KIT1, c-KIT2, c-MYC, HER2, HT-FANA, BCL-2, and VEGFR-17T; 290 nm for HRAS1, LWDLN1, HT1, and HT2) and at 252 nm for ds12 duplex. The apparent melting temperatures (T1/2) were determined using non-linear curve fitting with OriginLab© 2021 software (OriginLab Corp., MA, USA). ΔT1/2 values were calculated as the difference in the T1/2 values of the DNA structures in the presence and absence of a peptide.

[3] = test system: HER2 G4; conditions: CD melting at 264 nm, 2 μM DNA, 1 mol equiv peptide, 5 mM KH2PO4/K2HPO4 pH 7.0, 20 mM KCl, 1°C/min; average of three; T1/2 DNA alone 62.4°C
Experimental: as §1

[4] = test system: HT-FANA G4; conditions: CD melting at 264 nm, 2 μM DNA, 1 mol equiv peptide, 5 mM KH2PO4/K2HPO4 pH 7.0, 20 mM KCl, 1°C/min; average of three; T1/2 DNA alone 62.9°C
Experimental: as §1

[5] = test system: VEGFR-17T G4; conditions: CD melting at 264 nm, 2 μM DNA, 1 mol equiv peptide, 5 mM KH2PO4/K2HPO4 pH 7.0, 20 mM KCl, 1°C/min; average of three; T1/2 DNA alone 53.7°C
Experimental: as §1

[6] = test system: c-KIT1 G4; conditions: CD melting at 264 nm, 2 μM DNA, 1 mol equiv peptide, 5 mM KH2PO4/K2HPO4 pH 7.0, 20 mM KCl, 1°C/min; average of three; T1/2 DNA alone 53.8°C
Experimental: as §1

[7] = test system: c-MYC G4; conditions: CD melting at 264 nm, 2 μM DNA, 1 mol equiv peptide, 5 mM KH2PO4/K2HPO4 pH 7.0, 20 mM LiCl, 1°C/min; average of three; T1/2 DNA alone 68.2°C
Experimental: as §1

[8] = test system: ds12 duplex; conditions: CD melting at 252 nm, 2 μM DNA, 1 mol equiv peptide, 5 mM KH2PO4/K2HPO4 pH 7.0, 20 mM KCl, 1°C/min; average of three; T1/2 DNA alone 62.7°C
Experimental: as §1

[9] = biological target: c-KIT1 G4; assay: Microscale thermophoresis (MST) binding to c-KIT1 G4; set-up: species or system human; conditions: 25°C, 20 nM FITC-labelled peptide, DNA serial dilution, 5 mM KH2PO4/K2HPO4 pH 7.0, 20 mM KCl, 0.1% Tween, 5% DMSO
Experimental: (§2) MST experiments were conducted using a Monolith NT.115 instrument (NanoTemper Technologies, Munich, Germany) at 25°C with medium MST power settings. […] DNA samples were also diluted using the same buffer supplemented with 0.1% Tween. During MST experiments, the concentration of the labelled peptide was kept constant at 20 nM, while a serial dilution of the investigated DNA molecules (ranging from 10 or 20 μM) was prepared and mixed with the peptide solution in a 1:1 volume ratio. All the samples, with a final concentration of 5% DMSO, were loaded into standard capillaries (NanoTemper Technologies) for MST measurements. Data analysis was carried out using the MO.Affinity Analysis (v2.3) software provided with the instrument.

[10] = biological target: HER2 G4; assay: Microscale thermophoresis (MST) binding to HER2 G4; set-up: species or system human; conditions: 25°C, 20 nM FITC-labelled peptide, DNA serial dilution, 5 mM KH2PO4/K2HPO4 pH 7.0, 20 mM KCl, 0.1% Tween, 5% DMSO
Experimental: as §2

[11] = biological target: HT-FANA G4; assay: Microscale thermophoresis (MST) binding to HT-FANA G4; set-up: species or system human; conditions: 25°C, 20 nM FITC-labelled peptide, DNA serial dilution, 5 mM KH2PO4/K2HPO4 pH 7.0, 20 mM KCl, 0.1% Tween, 5% DMSO
Experimental: as §2

[12] = biological target: HRAS1 G4; assay: Microscale thermophoresis (MST) binding to HRAS1 G4; set-up: species or system human; conditions: 25°C, 20 nM FITC-labelled peptide, same buffer, n.d. = not determined due to undetectable binding
Experimental: as §2

[13] = biological target: LWDLN1 G4; assay: Microscale thermophoresis (MST) binding to LWDLN1 G4; conditions: 25°C, 20 nM FITC-labelled peptide, same buffer, n.d. = not determined due to undetectable binding
Experimental: as §2

[14] = biological target: ds12 duplex; assay: Microscale thermophoresis (MST) binding to ds12 duplex; conditions: 25°C, 20 nM FITC-labelled peptide, same buffer, n.d. = not determined due to undetectable binding
Experimental: as §2

## Ac-NHTGNSIRHRFRVYLSKRL-NH2 [Myb^397–415]
[1]; 2 μM DNA, 1 mol equiv peptide, 1°C/min, T1/2 DNA alone 59.5°C
  ΔT1/2 of c-KIT2 G4: 11.2 °C and 11.2 (±0.2) °C
[1]; 2 mol equiv of peptide with respect to G4, 2 μM DNA, T1/2 c-KIT2 alone 59.5°C
  ΔT1/2 of c-KIT2 G4: 17.3 (±0.2) °C
[2]
  ΔT1/2 of BCL-2 G4: 8.0 (±0.2) °C
[3]
  ΔT1/2 of HER2 G4: 7.0 (±0.2) °C
[4]
  ΔT1/2 of HT-FANA G4: 8.3 °C and 8.3 (±0.2) °C
[5]
  ΔT1/2 of VEGFR-17T G4: 0.2 (±0.2) °C
[6]
  ΔT1/2 of c-KIT1 G4: 6.2 (±0.2) °C
[7]
  ΔT1/2 of c-MYC G4: 5.0 (±0.2) °C
[8]
  ΔT1/2 of ds12 duplex: 1.0 °C and 1.0 (±0.2) °C
[9]
  Kd: 340 nM
[10]
  Kd: 130 nM
[11]
  Kd: 140 nM
[12]
  Kd for binding to HRAS1 G4: negligible binding
[13]
  Kd for binding to LWDLN1 G4: negligible binding
[14]
  Kd for binding to ds12 duplex: negligible
